From PubChem BioAssay (NCI)
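Cultured in 96-well plates, cells were exposed to test compound for 48 hours across five concentrations. GI50: concentration for 50% inhibition of growth. TGI marks complete inhibition of growth.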 Where a SMILES comes first, the peptide text is derived from it. [ ]: non-standard residue; d: D form. The star is where a group is joined. ξ: configuration not given here. ξF = NC(Cc1ccccc1)C(=O)O; Cbz = O=C(OCc1ccccc1)*; Aib = CC(C)(N)C(=O)O

Assays:
Experiment in all cases: NCI tumour cell line growth inhibition, 48 h
[1] = test system: 786-0 renal
[2] = test system: BT-549 breast
[3] = test system: M14 melanoma
[4] = test system: MDA-N
[5] = test system: MOLT-4 leukemia
[6] = test system: NCI/ADR-RES ovarian
[7] = test system: PC-3 prostate
[8] = test system: SK-MEL-5 melanoma
[9] = test system: SNB-75 CNS
[10] = test system: T-47D breast
[11] = test system: MCF7 breast

| SMILES | TGI [1] [µM] | TGI [2] [µM] | TGI [3] [µM] | TGI [4] [µM] | TGI [5] [µM] | TGI [6] [µM] | TGI [7] [µM] | TGI [8] [µM] | TGI [9] [µM] | TGI [10] [µM] | GI50 [2] [µM] | GI50 [3] [µM] | GI50 [11] [µM] | TGI [11] [µM] | GI50 [5] [µM] | GI50 [6] [µM] | GI50 [7] [µM] | GI50 [8] [µM] | GI50 [9] [µM] | GI50 [10] [µM] |
| --- | --- | --- | --- | --- | --- | --- | --- | --- | --- | --- | --- | --- | --- | --- | --- | --- | --- | --- | --- | --- |
| NCCSCc1ccccc1Cl | > 100 | > 100 | > 100 | > 100 | 86.3 | > 100 | 93.8 | > 100 | > 100 | > 100 |  |  |  |  |  |  |  |  |  |  |
| COc1cc(-c2n/c(=C\c3c(O)[nH]c4cc(Cl)ccc34)cc3c2=Nc2ccccc2-3)cc(OC)c1OC |  | 5.12 | 5.66 |  | 8.35 | 20.1 | 58.4 | 23 | 25.1 | 18.5 | 2.25 | 2.41 | 2.71 | 13.6 | 2.72 | 2.84 | 4.59 | 3.98 | 5.05 | 4.19 |
| CCOc1ccc(N=NS(=O)(=O)O)cc1 | > 100 | > 100 | > 100 | > 100 |  | > 100 | > 100 | > 100 | > 100 | > 100 |  |  |  | > 100 |  |  |  |  |  |  |
| N=C(N)c1ccc(-c2ccc(-c3cccs3)s2)s1 |  |  |  |  |  | 3.62 | 2.98 | 2.34 | 3.41 |  |  |  |  |  |  | 1.79 | 1.53 | 1.02 | 1.77 |  |
| Nc1c(-c2ccccc2[N+](=O)[O-])nc2ccccn12 |  |  | > 100 |  | > 100 |  |  | > 100 |  |  |  |  |  |  |  |  |  |  |  |  |
| CC(=O)ON1C(=O)c2cccc3cccc(c23)C1=O |  | 74.5 | 90.9 | 93.3 | 43 | > 100 | > 100 | 28.2 |  | 63.8 |  |  |  | > 100 |  |  |  |  |  |  |
| Cc1ccc(N2CCN(CCC(=O)O)CC2)cc1 | > 100 | > 100 | > 100 |  |  | > 100 | > 100 | > 100 | > 100 | > 100 |  |  |  | > 100 |  |  |  |  |  |  |
| COC(=O)C(C)(C)NC(=O)C(Cc1ccccc1)NC(=O)C(C)(C)NC(=O)OCc1ccccc1 (stereo not drawn) (Cbz-[Aib]-[ξF]-[Aib]-OMe) |  |  | > 100 | > 100 | > 100 | > 100 | > 100 | > 100 |  | > 100 |  |  |  | > 100 |  |  |  |  |  |  |
| Nc1nc2ccc(OCC(O)CN3CCCCC3)cc2[n+]([O-])n1 (stereo not drawn) | > 100 | > 100 | > 100 | > 100 | > 100 | > 100 | > 100 | > 100 | > 100 |  |  |  |  | > 100 |  |  |  |  |  |  |
| Cc1ccc(C(O)(c2ccc(C)cc2)c2ccccn2)cc1 | > 100 |  | > 100 |  |  |  |  | > 100 | > 100 |  |  |  |  |  |  |  |  |  |  |  |
| CCCCOCc1cc(CN2CCN(C)CC2)c(O)c2ncccc12 | 50.7 |  | 90 |  | 77.2 |  |  | 26.8 | > 100 |  |  |  |  |  |  |  |  |  |  |  |
| COc1cc(Nc2nnc3n2S(=O)(=O)c2cc(C)c(Cl)cc2S3)cc(OC)c1 | 20.5 | 22.1 | > 100 | > 100 | 60.9 | > 100 | 47 | 68.7 |  | 44.5 |  |  |  | > 100 |  |  |  |  |  |  |
| C(=N\OCCc1ccccc1)/c1cccnc1 | > 100 | > 100 | > 100 | > 100 | > 100 | > 100 | > 100 | > 100 | > 100 | > 100 |  |  |  | > 100 |  |  |  |  |  |  |
| c1cncc(O[Si](Oc2cccnc2)(Oc2cccnc2)Oc2cccnc2)c1 |  |  | > 100 |  | > 100 |  |  | > 100 | > 100 |  |  |  |  |  |  |  |  |  |  |  |
| CC(C)(CCCCC(C)(C)C1NC(=O)N1)C1NC(=O)N1 |  |  | > 10 | > 10 | > 10 | > 10 | > 10 | > 10 | > 10 | > 10 |  |  |  | > 10 |  |  |  |  |  |  |
